This note sets out measurements from patent publication US9540323B2 (BRISTOL-MYERS SQUIBB COMPANY, priority 2012, dated 2017).

The structures appear in SMILES notation. A value given as a limit tells only on which side of the number the result lay.

Assay [1] deals with cloned human P2Y1 receptors (Homo sapiens (Human), UniProt P47900). Nature of the assay: Binding Assay B - Scintillation Proximity Assay (SPA) for P2Y1 binding, [33P] 2MeS-ADP. The note with it: SPA, 0.3 nM [33P] 2MeS-ADP, Cheng-Prusoff; read-out: P2Y1 Ki (nM) using binding assay B. As to the method:
Binding Assay B—Scintillation Proximity Assay (SPA) for P2Y1 Binding
A SPA membrane binding assay was used to identify inhibitors of [^33P] […] Reactions were allowed to proceed to completion at room temperature for 1 hour followed by centrifugation of the plate for 5 min. About 40 μL of the aqueous solution was aspirated. Plates were sealed and the [^33P]

Assay [2] relates to human platelet rich plasma (PRP). Nature of the assay: ADP induced platelet aggregation assay. The settings on record: Homo sapiens, Platelet, 5 min, read-out: PA IC50 (μM) @ 10 μM ADP, human PRP, 10 μM ADP, AUC at 5 minute.

cloned human P2Y1 receptors, sequence (P47900 whole entry): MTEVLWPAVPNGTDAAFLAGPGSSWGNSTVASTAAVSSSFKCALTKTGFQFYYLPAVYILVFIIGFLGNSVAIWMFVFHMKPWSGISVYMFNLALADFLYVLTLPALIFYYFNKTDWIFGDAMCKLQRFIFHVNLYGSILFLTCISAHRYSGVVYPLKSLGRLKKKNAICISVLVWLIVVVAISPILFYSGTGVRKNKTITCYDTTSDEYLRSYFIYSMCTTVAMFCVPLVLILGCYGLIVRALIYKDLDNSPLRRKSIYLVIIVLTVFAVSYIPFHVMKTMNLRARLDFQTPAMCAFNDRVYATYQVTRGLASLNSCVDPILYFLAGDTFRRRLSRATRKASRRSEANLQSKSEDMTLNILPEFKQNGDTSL

For `CCC1(CC)CN(c2ccccc2NC(=O)Nc2csc(Cl)n2)c2c(O)ccc(F)c21` [Example 31, 1-(2-Chlorothiazol-4-yl)-3-(2-(3,3-diethyl-4-fluoro-7-hydroxyindolin-1-yl)phenyl)urea], the Ki in assay [1] amounted to 3.3 nM. Further, the IC50 in assay [2] was 0.53 µM.
For the compound `COc1ccc2nc(NC(=O)Nc3ccccc3N3CC(C)(C)c4c(-c5nc6ccc(Cl)cc6o5)ccc(O)c43)sc2n1` [Example 110, 1-(2-(4-(6-Chlorobenzo[d]oxazol-2-yl)-7-hydroxy-3,3-dimethylindolin-1-yl)phenyl)-3-(5-methoxythiazolo[5,4-b]pyridin-2-yl)urea], the inhibition constant Ki in assay [1] amounted to 15.4 nM. For the same compound, the IC50 in assay [2] was 0.31 µM.
As for `CC1(C)CN(c2ccccc2NC(=O)Nc2ccc(OC(F)(F)F)cc2)c2c(O)ccc(-c3nc4c(CO)cccc4o3)c21` [Example 106, 1-(2-(7-Hydroxy-4-(4-(hydroxymethyl)benzo[d]oxazol-2-yl)-3,3-dimethylindolin-1-yl)phenyl)-3-(4-(trifluoromethoxy)phenyl) urea], the Ki in assay [1] was 364 nM. Moreover, in assay [2], the IC50 was 3.28 µM.
Regarding `CCC1(CC)CN(c2ccccc2NC(=O)Nc2ccc(C3CCCN3CC(C)C)cc2)c2c(O)ccc(F)c21` (stereo not shown) [Example 30, 1-(2-(3,3-Diethyl-4-fluoro-7-hydroxyindolin-1-yl)phenyl)-3-(4-(1-isobutylpyrrolidin-2-yl)phenyl)urea], the Ki in assay [1] was determined as 5.1 nM. Moreover, the concentration for half-maximal inhibition (IC50) in assay [2] was 0.28 µM.
On the same counts, the results for `CC1(C)CN(c2ccccc2NC(=O)Nc2ccc(OC(F)(F)F)cc2)c2c(O)c(F)cc(-c3ccccc3)c21` [Example 230, 1-(2-(6-Fluoro-7-hydroxy-3,3-dimethyl-4-phenylindolin-1-yl)phenyl)-3-(4-(trifluoromethoxy)phenyl)urea] are 16.3 nM and 0.3 µM.
Consider `CC1(C)CN(c2ccccc2NC(=O)Nc2ccc(OC(F)(F)F)cc2)c2c(O)cc(F)c(-c3ccc(Cl)cc3)c21` [Example 214, 1-(2-(4-(4-Chlorophenyl)-5-fluoro-7-hydroxy-3,3-dimethylindolin-1-yl)phenyl)-3-(4-(trifluoromethoxy)phenyl)urea], for which the Ki in assay [1] is 13.7 nM. Further, in assay [2], the IC50 worked out at 0.21 µM.
On the same counts, the results for `CC1(C)CN(c2ccccc2NC(=O)Nc2csc(Cl)n2)c2c(O)ccc(-c3nc4cc(Cl)ccc4s3)c21` [Example 147, 1-(2-(4-(5-Chlorobenzo[d]thiazol-2-yl)-7-hydroxy-3,3-dimethylindolin-1-yl)phenyl)-3-(2-chlorothiazol-4-yl)urea] are 70.8 nM and 0.77 µM.
Take `CC1(C)CN(c2ccccc2NC(=O)Nc2nc3ccc(F)cc3s2)c2c(O)cc(F)c(-c3ccc(F)cc3)c21` [Example 213, 1-(2-(5-Fluoro-4-(4-fluorophenyl)-7-hydroxy-3,3-dimethylindolin-1-yl)phenyl)-3-(6-fluorobenzo[d]thiazol-2-yl)urea]: in assay [1], the inhibition constant Ki is 25.4 nM. In addition, the half-maximal inhibitory concentration (IC50) in assay [2] amounted to 0.38 µM.
Consider `CC1(C)CN(c2ccccc2NC(=O)Nc2ccc(OC(F)(F)F)cc2)c2c(O)cc(F)c(C3CC3)c21` [Example 252, 1-(2-(4-Cyclopropyl-5-fluoro-7-hydroxy-3,3-dimethylindolin-1-yl)phenyl)-3-(4-(trifluoromethoxy)phenyl)urea], for which the inhibitory constant (Ki) in assay [1] came out at 18.3 nM. In addition, the 50% inhibitory concentration (IC50) in assay [2] worked out at 0.42 µM.
On the same counts, the results for `CC(C)Cn1cc(-c2c(F)cc(O)c3c2C(C)(C)CN3c2ccccc2NC(=O)Nc2ccc(OC(F)(F)F)cc2)cn1` [Example 184, 1-(2-(5-Fluoro-7-hydroxy-4-(1-isobutyl-1H-pyrazol-4-yl)-3,3-dimethylindolin-1-yl)phenyl)-3-(4-(trifluoromethoxy)phenyl)urea] are 10.7 nM and 0.26 µM.
Turning to `Cn1nc(C(F)(F)F)cc1-c1c(F)cc(O)c2c1C(C)(C)CN2c1ccccc1NC(=O)Nc1ccc(OC(F)(F)F)cc1` [Example 183, 1-(2-(5-Fluoro-7-hydroxy-3,3-dimethyl-4-(1-methyl-3-(trifluoromethyl)-1H-pyrazol-5-yl)indolin-1-yl)phenyl)-3-(4-(trifluoromethoxy)phenyl)urea], the inhibitory constant (Ki) in assay [1] is 11.3 nM. Further, the IC50 in assay [2] turned out to be 0.21 µM.
For the compound `CC(C)(C)CN1CCCC1c1ccc(NC(=O)Nc2ccccc2N2CC(C)(C)c3c(-c4ccc(F)cc4)ccc(O)c32)cc1` (stereo not shown) [Example 202, 1-(2-(4-(4-Fluorophenyl)-7-hydroxy-3,3-dimethylindolin-1-yl)phenyl)-3-(4-(1-neopentylpyrrolidin-2-yl)phenyl)urea], in assay [1], the inhibition constant (Ki) was 5.7 nM. The half-inhibitory concentration (IC50) in assay [2] is 0.09 µM.
For `CC1(C)CN(c2ccccc2NC(=O)Nc2ccc(OC(F)(F)F)cc2)c2c(O)cc(F)c(-c3ccc(C(F)(F)F)cn3)c21` [Example 149, 1-(2-(5-Fluoro-7-hydroxy-3,3-dimethyl-4-(5-(trifluoromethyl)pyridin-2-yl)indolin-1-yl)phenyl)-3-(4-(trifluoromethoxy)phenyl)urea], the Ki in assay [1] turned out to be 13 nM. For the same compound, the IC50 in assay [2] stood at 0.11 µM.
As for `CCC1(CC)CN(c2ccccc2NC(=O)Nc2nc3c(s2)CN(CC(F)(F)F)CC3)c2c(O)ccc(Cl)c21` [Example 55, 1-(2-(4-Chloro-3,3-diethyl-7-hydroxyindolin-1-yl)phenyl)-3-(5-(2,2,2-trifluoroethyl)-4,5,6,7-tetrahydrothiazolo[5,4-c]pyridin-2-yl)urea], in assay [1], the Ki was 16.2 nM. In assay [2], the IC50 was 0.63 µM.
Consider `CC(C)(C)c1ccc(-c2c(F)cc(O)c3c2C(C)(C)CN3c2ccccc2NC(=O)Nc2csc(C(F)(F)F)n2)cc1` [Example 243, 1-(2-(4-(4-(tert-Butyl)phenyl)-5-fluoro-7-hydroxy-3,3-dimethylindolin-1-yl)phenyl)-3-(2-(trifluoromethyl)thiazol-4-yl)urea], for which the Ki in assay [1] is 20.3 nM. Moreover, in assay [2], the IC50 worked out at 0.1 µM.
On the same counts, the results for `CCOC(=O)C1(C)CN(c2ccccc2NC(=O)Nc2ccc(OC(F)(F)F)cc2)c2c(O)ccc(Cl)c21` (stereo not shown) [Example 74, Ethyl 4-chloro-7-hydroxy-3-methyl-1-(2-(3-(4-(trifluoromethoxy)phenyl)ureido)phenyl)indoline-3-carboxylate] are 19.8 nM and 3.11 µM.
In the same order, the values of `CCC1(CC)CN(c2ccccc2NC(=O)Nc2ccc(OC(F)(F)F)cc2)c2c(O)ccc(C(F)(F)F)c21` [Example 24, 1-(2-(3,3-Diethyl-7-hydroxy-4-(trifluoromethyl)indolin-1-yl)phenyl)-3-(4-(trifluoromethoxy)phenyl)urea] are 7.6 nM and 0.22 µM.
Turning to `CC(C)(C)c1ccccc1Oc1ncccc1NC(=O)Nc1ccccc1N1CC(C)(C)c2ccccc21` [Comparator 3, reference compound], in assay [1], the Ki was found to be 759 nM. Moreover, the IC50 in assay [2] was > 20 µM.
For the compound `CC(C)CN1CCc2nc(NC(=O)Nc3ccccc3N3CC(C)(C)c4c(C(F)(F)F)ccc(O)c43)sc2C1` [Example 21, 1-(2-(7-Hydroxy-3,3-dimethyl-4-(trifluoromethyl)indolin-1-yl)phenyl)-3-(5-isobutyl-4,5,6,7-tetrahydrothiazolo[5,4-c]pyridin-2-yl)urea], the inhibition constant Ki in assay [1] amounted to 7.9 nM. In addition, the IC50 in assay [2] amounted to 0.07 µM.
`CC(C)Cc1nc(-c2c(F)cc(O)c3c2C(C)(C)CN3c2ccccc2NC(=O)Nc2ccc(OC(F)(F)F)cc2)co1` [Example 260, 1-(2-(5-Fluoro-7-hydroxy-4-(2-isobutyloxazol-4-yl)-3,3-dimethylindolin-1-yl)phenyl)-3-(4-(trifluoromethoxy)phenyl)urea]: the Ki in assay [1] amounted to 18.8 nM. The concentration for half-maximal inhibition (IC50) in assay [2] was found to be 0.4 µM.
